Results on 20 molecules are retold here after ChEMBL document CHEMBL2203133 (J Med Chem, 2012).

A value given as a limit tells only on which side of the number the result lay.

Data set [1] concerns the target Voltage-gated inwardly rectifying potassium channel KCNH2 (Homo sapiens, UniProt Q12809).
In data set [2] the target is T1, Serine/threonine-protein kinase Chk1 (Homo sapiens, UniProt O14757).
T1 sequence (O14757 whole entry): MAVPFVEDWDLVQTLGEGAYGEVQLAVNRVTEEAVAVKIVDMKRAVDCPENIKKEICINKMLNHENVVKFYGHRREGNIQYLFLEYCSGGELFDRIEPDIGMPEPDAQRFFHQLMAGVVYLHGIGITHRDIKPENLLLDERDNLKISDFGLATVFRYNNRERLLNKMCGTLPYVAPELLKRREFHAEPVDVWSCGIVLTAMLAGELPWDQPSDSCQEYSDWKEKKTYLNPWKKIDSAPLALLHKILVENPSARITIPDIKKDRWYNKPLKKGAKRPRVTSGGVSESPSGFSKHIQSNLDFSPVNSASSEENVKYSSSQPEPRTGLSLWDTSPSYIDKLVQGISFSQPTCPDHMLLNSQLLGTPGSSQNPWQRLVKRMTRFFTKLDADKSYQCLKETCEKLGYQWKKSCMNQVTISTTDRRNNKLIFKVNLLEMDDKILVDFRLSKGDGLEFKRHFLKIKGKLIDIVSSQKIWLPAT

The target of data set [3] is T2, hERG (KCNH2) (Homo sapiens, UniProt Q12809). Nature of the data set: Inhibition of human ERG overexpressed in HEK cells at 10 uM. Format: cell-based, HEK293. To be noted: HEK cells overexpressing human ERG.
Data set [4] concerns the target T2, hERG (KCNH2). Nature of the data set: Inhibition of human ERG overexpressed in HEK cells at 11 uM. Format: cell-based, HEK293. To be noted: HEK cells overexpressing human ERG.
The nature of data set [5]: Plasma concentration in BALB/c mouse at 10 mg/kg, po at 6 hrs. Format: ADME, organism-based. Details: dose 10 mg/kg, route oral.
The nature of data set [6]: Plasma concentration in BALB/c mouse at 10 mg/kg, po at 1 hr. Format: ADME, organism-based. Details: dose 10 mg/kg, route oral.
The nature of data set [7]: Plasma concentration in BALB/c mouse at 10 mg/kg, iv at 6 hrs administered as bolus dose. Format: ADME, organism-based. Also on record: dose 10 mg/kg, route intravenous.
A short description of data set [8]: Plasma concentration in BALB/c mouse at 10 mg/kg, iv at 1 hr administered as bolus dose. Format: ADME, organism-based. Also on record: dose 10 mg/kg, route intravenous.
Data set [9] can be described thus: in vitro. To be noted: mouse, liver microsomes. For orientation: Microsomes from liver hold many membrane-bound enzymes, among them those of drug oxidation.
In data set [10] the test system is Caco-2. To be noted: human.
Description: Permeability across apical to basolateral side in human Caco2 cells
In data set [11] the test system is Mus musculus. Nature of the data set: Toxicity in athymic mouse xenografted with human HT-29 cells assessed as body weight loss at 100 mg/kg, iv tid for 7 days. Details: dose 100 mg/kg, route intravenous. To be noted: in vivo, 168 h. Format: organism-based.
The subject of data set [12] is Mus musculus. Nature of the data set: Toxicity in athymic mouse xenografted with human SW620 cells assessed as body weight loss at 100 mg/kg, iv tid for 4 days. Format: organism-based, SW-620. Also on record: dose 100 mg/kg, route intravenous. The note with it: in vivo, 96 h. (Xenograft models place foreign cells or tissue in a host animal.)
Data set [13] relates to Mus musculus. Nature of the data set: Toxicity in athymic mouse xenografted with human Calu6 cells assessed as body weight loss at 100 mg/kg, iv tid for 7 days. Format: organism-based, Calu-6. Also on record: dose 100 mg/kg, route intravenous. The note with it: in vivo, 168 h.
Data set [14] relates to SW-620. Nature of the data set: Antitumor activity against human SW620 cells xenografted in athymic mouse assessed as tumor growth delay at 100 mg/kg, iv tid for 4 days (reference value: 5.3 1.3). Format: functional.
For data set [15], the system named is HT-29. Nature of the data set: Antitumor activity against human HT-29 cells xenografted in athymic mouse assessed as tumor growth delay at 100 mg/kg, iv tid for 7 days (reference value: 8.8 4.8). Format: functional.
Data set [16] has as its system Calu-6. Nature of the data set: Antitumor activity against human Calu6 cells xenografted in athymic mouse assessed as tumor growth delay at 100 mg/kg, iv tid for 7 days (reference value: 6.9 1.6). Format: functional.
In data set [17] the test system is Mus musculus. Nature of the data set: Toxicity in athymic mouse xenografted with human HT-29 cells assessed as body weight loss at 12.5 mg/kg, ip tid for 7 days. Format: organism-based. Details: dose 12.5 mg/kg, route intraperitoneal. The note with it: in vivo, 168 h.
Data set [18] has as its system HT-29. Nature of the data set: Antitumor activity against human HT-29 cells xenografted in athymic mouse assessed as tumor growth delay at 12.5 mg/kg, ip tid for 7 days (reference value: 6.9 1.5). To be noted: route intraperitoneal. Format: functional.

T2 sequence (Q12809 whole entry): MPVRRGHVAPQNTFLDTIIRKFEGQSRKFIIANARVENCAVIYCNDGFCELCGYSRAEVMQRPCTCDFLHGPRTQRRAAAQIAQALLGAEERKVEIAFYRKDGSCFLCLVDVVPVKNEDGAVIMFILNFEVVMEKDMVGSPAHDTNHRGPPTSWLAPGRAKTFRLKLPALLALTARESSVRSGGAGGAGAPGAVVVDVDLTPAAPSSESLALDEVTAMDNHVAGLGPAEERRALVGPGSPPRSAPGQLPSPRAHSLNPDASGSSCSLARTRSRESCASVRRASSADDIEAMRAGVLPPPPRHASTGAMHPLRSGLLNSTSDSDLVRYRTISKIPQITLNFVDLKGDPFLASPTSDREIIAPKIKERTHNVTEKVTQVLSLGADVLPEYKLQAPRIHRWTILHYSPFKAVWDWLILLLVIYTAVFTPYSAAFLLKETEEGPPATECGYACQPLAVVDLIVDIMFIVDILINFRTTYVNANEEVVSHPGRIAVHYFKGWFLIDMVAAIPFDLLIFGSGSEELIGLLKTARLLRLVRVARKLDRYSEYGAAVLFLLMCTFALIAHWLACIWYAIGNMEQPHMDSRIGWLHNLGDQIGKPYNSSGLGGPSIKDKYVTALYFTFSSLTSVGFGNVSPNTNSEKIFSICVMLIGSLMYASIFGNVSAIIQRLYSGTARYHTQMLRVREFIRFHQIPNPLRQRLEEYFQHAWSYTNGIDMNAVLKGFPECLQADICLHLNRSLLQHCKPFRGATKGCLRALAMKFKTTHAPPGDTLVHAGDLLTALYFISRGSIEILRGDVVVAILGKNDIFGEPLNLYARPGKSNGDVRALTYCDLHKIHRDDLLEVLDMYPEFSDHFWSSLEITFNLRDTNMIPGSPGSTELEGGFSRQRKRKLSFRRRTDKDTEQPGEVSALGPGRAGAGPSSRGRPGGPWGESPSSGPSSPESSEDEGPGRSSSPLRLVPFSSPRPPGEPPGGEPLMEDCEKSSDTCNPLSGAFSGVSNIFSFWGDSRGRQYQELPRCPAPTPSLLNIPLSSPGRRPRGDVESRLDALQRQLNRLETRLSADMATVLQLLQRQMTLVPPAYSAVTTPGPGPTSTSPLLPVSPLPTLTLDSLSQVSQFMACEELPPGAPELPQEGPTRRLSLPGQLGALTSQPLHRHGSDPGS
Sequence of Voltage-gated inwardly rectifying potassium channel KCNH2 (Q12809 whole entry): as above

For `CSc1cc(Nc2cnc(C#N)c(O[C@H](C)CN(C)C)n2)ncc1-c1cnn(C)c1`, the half-maximal inhibitory concentration (IC50) (as a rule, the concentration that inhibits the measured activity by half) came to 8 µM in [1] and 0.027 µM in [2].
In the case of `CNc1cc(Nc2cnc(C#N)c(O[C@@H]3CCNC3)n2)ncc1-c1cnn(C)c1`, the inhibition (commonly the drop in the measured response relative to a control, in per cent) at 10 µM in data set [3] was 22%.
As for `COC(=O)c1cnc(Nc2cnc(C#N)c(O[C@@H]3CCNC3)n2)cc1OC`, the inhibition at 11 µM in data set [4] was 44%. The molecule further came in with a half-maximal inhibitory concentration (IC50) in data set [2] of 0.0465 µM.
Regarding `CNc1cc(Nc2cnc(C#N)c(O[C@H]3CCNC3)n2)ncc1-c1cnn(C)c1`, the concentration at 6 h amounted to 0.002 µM in data set [5] and 0.053 µM in [7]. In addition, the figures for the concentration at 1 h in data set [6] and in data set [8] were 0.003 µM and 0.254 µM, respectively. For the same molecule, the inhibition at 10 µM in data set [3] was found to be 37%. In [9], the metabolised at 0.5 h was found to be 12%.
Turning to `CNc1cc(Nc2cnc(C#N)c(O[C@H](C)CN(C)C)n2)ncc1C(F)(F)F`, the concentration at 6 h in data set [5] amounted to 0.026 µM; in [7], 0.033 µM. Moreover, the concentration at 1 h in data set [6] amounted to 0.809 µM; in [8] it was 1.04 µM. In addition, the figures for the IC50 in data set [1] and in [2] were 1 µM and 0.021 µM, respectively. In data set [10], this molecule came in with a permeability of under 46 nm/s. Also, the metabolised at 0.5 h in [9] came to 43%.
As for `CNc1cc(Nc2cnc(C#N)c(O[C@H](C)CN(C)C)n2)ncc1C#CC(C)(C)O`, the inhibition at 10 µM in data set [3] amounted to 59%. Moreover, the midpoint of inhibition in data set [2], the IC50, lay at 0.0029 µM.
As for `Nc1ccn([C@@H]2O[C@H](CO)[C@@H](O)C2(F)F)c(=O)n1` [GEMCITABINE], the Activity result in [11], in [12] and in data set [13] was “Non-toxic” each time. Also, the Time in data set [14] amounted to 1.6 days; in data set [15] it was 2.3 days; in [16], 7.2 days.
As to `CNc1cc(Nc2cnc(C#N)c(O[C@H](C)CN(C)C)n2)ncc1C(=O)OC`, the half-inhibitory concentration (IC50) in data set [1] was 5 µM; in data set [2], 0.007 µM. For the same molecule, in data set [9], the metabolised at 0.5 h turned out to be 49%.
As for `CNc1cc(Nc2cnc(C#N)c(O[C@H](C)CN(C)C)n2)ncc1C1CC1`, the concentration at 6 h in [5] stood at 0.008 µM; in data set [7] it was 0.029 µM. The values for the concentration at 1 h in data set [6] and in [8] were 0.08 µM and 0.417 µM, respectively. Moreover, the IC50 is 6 µM in data set [1] and 0.026 µM in data set [2]. This molecule came in with a metabolised at 0.5 h in data set [9] of 42%.
Consider `CNc1cc(Nc2cnc(C#N)c(O[C@H]3CCN(C)C3)n2)ncc1-c1cnn(C)c1`, for which the concentration at 6 h turned out to be 0.004 µM in data set [5] and 0.008 µM in [7]. Besides, the concentration at 1 h in data set [6] turned out to be 0.018 µM; in [8] it was 0.147 µM. Further, the 50% inhibitory concentration (IC50) in data set [2] amounted to 0.0034 µM. For the same molecule, the metabolised at 0.5 h in data set [9] worked out at 19%.
`C[C@H](CN(C)C)Oc1nc(Nc2cc3cccc(Cl)c3cn2)cnc1C#N`: the IC50 in data set [1] came to 5 µM.
For the molecule `CNc1cc(Nc2cnc(C#N)c(O[C@H](C)CN(C)C)n2)ncc1Cl`, the half-inhibitory concentration (IC50) in data set [1] came out at 1 µM; in data set [2], 0.02 µM.
With `COC(=O)c1cnc(Nc2cnc(C#N)c(O[C@@H]3CCNC3)n2)cc1N(C)C`, the IC50 in [1] worked out at 30 µM; in data set [2] it was 0.0088 µM.
Turning to `CNc1cc(Nc2cnc(C#N)c(O[C@H](C)CN(C)C)n2)ncc1-c1cccc(F)c1`, the inhibition at 11 µM in data set [4] is 103%. The molecule also yielded an IC50 in data set [2] of 0.036 µM.
With `COC(=O)c1cnc(Nc2cnc(C#N)c(O[C@@H]3CCNC3)n2)cc1SC`, the inhibition at 10 µM in data set [3] was found to be 25%. The same molecule came in with an IC50 in data set [2] of 0.018 µM.
`COc1cc(Nc2cnc(C#N)c(O[C@@H]3CCNC3)n2)ncc1-c1cnn(C)c1`: the IC50 in data set [2] is under 0.001 µM.
Consider `COc1cc(Nc2cnc(C#N)c(O[C@@H]3CCN(C)C3)n2)ncc1-c1cnn(C)c1`, for which the concentration at 6 h in data set [5] turned out to be 0.006 µM; in data set [7], 0.007 µM. Also, the concentration at 1 h in [6] amounted to 0.264 µM; in data set [8], 1.18 µM. In addition, the concentration for half-maximal inhibition (IC50) worked out at 16 µM in data set [1] and 0.0063 µM in [2]. Also, in [9], the metabolised at 0.5 h turned out to be 18%.
On to `CNc1ccnc(Nc2cnc(C#N)c(O[C@H](C)CN(C)C)n2)c1`, for which, in data set [3], the inhibition at 10 µM is 71%. Half-maximal inhibition in data set [2] (IC50) required 0.097 µM.
`CCc1c2c(nc3ccc(OC(=O)N4CCC(N5CCCCC5)CC4)cc13)-c1cc3c(c(=O)n1C2)COC(=O)[C@]3(O)CC` [IRINOTECAN]: in data set [17], the Activity result is reported as “Non-toxic”. Moreover, in [18], the Time worked out at 6.4 days.
Consider `C#Cc1cnc(Nc2cnc(C#N)c(O[C@H](C)CN(C)C)n2)cc1NC`, for which the values for the concentration at 6 h in data set [5] and in [7] were 0.006 µM and 0.007 µM, respectively. Besides, the figures for the concentration at 1 h in data set [6] and in [8] were 0.439 µM and 0.833 µM, respectively. In [2], half-maximal inhibition (IC50) was put at 0.011 µM. Moreover, in [9], the metabolised at 0.5 h amounted to 40%.
